Measured values from patent publication US7723473B2, “Peptide antagonists of TGF-beta family members and therapeutic uses thereof” (St. Louis University, priority 1997, dated 2010).

Experiments:
PAI-1 expression = PAI-1 expression in mink lung epithelial cells (Northern blot); type: cell-based; settings: 0.25 ρM and 2.5 ρM TGF-β1
Description: RNA Analysis—Mink lung epithelial cells were grown overnight in 12-well clustered dishes in DMEM containing 10% fetal calf serum. The medium was then changed to DMEM containing 0.1% fetal calf serum and the cells were incubated with 0.25 and 2.5 ρM TGF-β1 in the presence of various concentrations of peptide β1^25 (41-65) for 2.5 hr. Total cellular RNA was extracted using RNAzol B (Tel-Test Inc.) according to the manufacturer's protocol. RNA was electrophoresed in 1.2% agarose-formaldehyde gel and transferred to Duralon-UV membranes using 10×SSC. The membranes were probed at 42° C. with a random-primed, radiolabeled 1-kb fragment from the Hind III and NeoI digests of PAI-1 cDNA and glyceraldehyde-3-phosphate dehydrogenase (“GAPDH”) cDNA. The blots were washed with 0.1×SSC containing 0.1% SDS at room temperature.

ear excision wounds = experiment: Rabbit ear excision wound model; type: in vivo; settings: for scar formation: post-excision day 10
Description: Preparation of IntraSite® gel containing TGF-β peptantagonist (peptide TGF-beta antagonist). 1 ml of sterile 6 mM peptide β1^25 (41-65) in phosphate buffered saline or 1 ml of sterile phosphate buffered saline was vigorously mixed with 3 ml of IntraSite® gel using two 10 ml syringes connected with a three-way connector. […] However, 1.5 mM of peptide β1^25 (41-65) was used throughout the experiments described below.
Excision wound model. Four pigs received intramuscular injection of ketamine, strenil® and atropine as described above. Six excision injuries were generated by removing full-thickness sections of skin (3×3 cm) from standardized sites on the back of each animal using a scapel. Three rabbits, were anesthetized by intramuscular injection of ketamine (5 mg/kg). Three excision injuries were produced in each by removing full-thickness sections of skin (0.5×1 cm) from each ear. After wounds, a thin layer of IntraSite® gel containing peptide β1^25 (41-65) was applied to alternating wounds on each animal and IntraSite® gel+buffer was applied to the other half. The excision wounds were then dressed with a paraffin gauze. For pig experiments, the dressing was changed every two days for the first 10 days and twice a week for the next 30 days. For rabbit experiments, the dressing was changed for the first 3 days. Gel containing peptide β1^25 (41-65) or control gel was applied at each dressing change.
Measurement of scar. The volumes of scar tissue were estimated by multiplying their thickness by the size of the scar on post-burn day 41 in pigs and post-excision day 10 in rabbits.

α2-macroglobulin = target: T1, α2-macroglobulin (Homo sapiens, UniProt P01023); settings: Ref. 22; cited from earlier work
T1 sequence (P01023 24-1474): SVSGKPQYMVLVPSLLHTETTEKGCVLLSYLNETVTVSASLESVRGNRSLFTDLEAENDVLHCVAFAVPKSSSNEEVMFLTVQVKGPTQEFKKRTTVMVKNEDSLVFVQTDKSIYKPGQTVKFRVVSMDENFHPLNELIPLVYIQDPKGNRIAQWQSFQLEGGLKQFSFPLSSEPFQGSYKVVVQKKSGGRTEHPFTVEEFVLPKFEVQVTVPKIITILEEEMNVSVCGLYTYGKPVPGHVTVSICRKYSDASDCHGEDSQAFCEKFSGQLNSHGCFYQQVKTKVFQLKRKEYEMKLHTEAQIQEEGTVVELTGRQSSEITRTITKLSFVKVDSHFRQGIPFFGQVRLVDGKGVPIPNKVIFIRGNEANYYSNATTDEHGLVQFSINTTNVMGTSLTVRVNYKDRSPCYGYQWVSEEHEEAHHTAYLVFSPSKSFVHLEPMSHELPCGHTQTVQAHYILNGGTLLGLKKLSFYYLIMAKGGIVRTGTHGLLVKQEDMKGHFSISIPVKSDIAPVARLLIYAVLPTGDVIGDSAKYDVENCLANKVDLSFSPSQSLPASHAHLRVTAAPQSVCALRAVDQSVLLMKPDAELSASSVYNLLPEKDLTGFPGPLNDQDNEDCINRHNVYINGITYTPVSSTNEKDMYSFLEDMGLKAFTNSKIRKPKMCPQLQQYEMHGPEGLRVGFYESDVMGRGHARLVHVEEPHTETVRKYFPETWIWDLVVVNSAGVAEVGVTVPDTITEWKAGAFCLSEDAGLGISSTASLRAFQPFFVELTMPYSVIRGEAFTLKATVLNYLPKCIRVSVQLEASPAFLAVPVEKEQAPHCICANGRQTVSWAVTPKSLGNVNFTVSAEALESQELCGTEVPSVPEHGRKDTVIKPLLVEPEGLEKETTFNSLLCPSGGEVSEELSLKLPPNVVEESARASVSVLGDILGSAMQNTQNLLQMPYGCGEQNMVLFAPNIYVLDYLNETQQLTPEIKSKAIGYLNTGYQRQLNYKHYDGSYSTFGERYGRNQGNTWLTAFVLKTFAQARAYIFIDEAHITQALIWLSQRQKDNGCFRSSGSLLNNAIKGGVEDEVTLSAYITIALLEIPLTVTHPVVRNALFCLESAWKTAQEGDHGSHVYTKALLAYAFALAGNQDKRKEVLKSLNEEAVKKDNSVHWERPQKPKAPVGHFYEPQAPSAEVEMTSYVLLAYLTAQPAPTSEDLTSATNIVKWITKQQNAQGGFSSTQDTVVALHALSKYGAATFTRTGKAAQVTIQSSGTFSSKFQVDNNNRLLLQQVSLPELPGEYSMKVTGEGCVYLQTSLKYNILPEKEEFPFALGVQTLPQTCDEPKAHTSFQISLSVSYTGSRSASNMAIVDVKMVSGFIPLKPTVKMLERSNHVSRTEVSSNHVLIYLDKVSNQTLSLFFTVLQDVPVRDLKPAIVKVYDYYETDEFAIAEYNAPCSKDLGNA

[1] = tested on: mink lung epithelial cells; experiment: Mink lung epithelial cell growth measured by DNA synthesis without added TGF-β1 (agonist activity); type: cell-based
Description: [Methyl-^3H]thymidine Incorporation—Mink lung epithelial cells grown on 24-well clustered dishes were incubated with various concentrations of TGF-β1 in the presence and absence of peptide β1^25 (41-65) or with various concentrations of peptide β1^25 (41-65)-CA, and peptide β1^25 (41-65)-BSA in DMEM containing 0.1% fetal calf serum. After 16 hr at 37° C., the cells were pulsed with 1 μCi/ml of [methyl-^3H]thymidine for 4 hr. The cells were then washed twice with 1 ml of 10% trichloroacetic acid and once with 0.5 ml of ethanol:ether (2:1, v/v). The cells were then dissolved in 0.4 ml of 0.2 N NaOH and counted with a liquid scintillation counter.

With “ANFCLGPCPYIWSLDTQYSKVLALY [peptide β1^25 (41-65)]” the “blocking of PAI-1 expression stimulated by TGF-β1” value (PAI-1 expression) was “completely blocked”, the scar formation (ear excision wounds) was “attenuated scar formation” and the “volume of scar tissue” value (ear excision wounds; post-excision day 10, n=6, estimated) was 0.005±0.01 cm^3. The scar formation (ear excision wounds; listed as TGF-β-peptantagonist) was “reduced scarring”, the “complex formation between α2-macroglobulin and growth factors, cytokines and hormones” value (α2-macroglobulin) was “block complex formation” and the “effect on DNA synthesis in the absence of TGF-β1” value ([1]; 0.1 μM to 36 μM peptide) was “did not have an effect”. For the same sequence, the “reversal of growth inhibition induced by 0.2 μM β1^25 (41-65)-CA” value ([1]; 10 μM peptide, data not shown) was “abolished”.
